System: Balanus amphitrite
Test: whole plant or invertebrate
Conditions: 0.1 ppm; cypris larvae, 20° C., 24 hours (Table 1)
Description: The nauplii of Balanus amphitrite, hatched in a natural sea water sterilized by filtration were tamed with a diatom feed to convert them into cypris larvae (settling stage larvae). Ten of these cypris larvae and 4 ml of a natural sea water sterilized by filtration were placed in a laboratory dish having a diameter of 3 cm. 10 mg of a present agent compound was made into 1 g of an emulsion with an emulsifier consisting of cyclohexanone and Tween 80 (a trade name of Kao Atlas Co., Ltd.), and the emulsion was diluted to a given concentration of present agent compound with an artificial sea water. 1 ml of the diluted solution was added into the above laboratory dish. The laboratory dish was allowed to stand in a thermostat of 20° C. for 24 hours, and the number of dead cypris larvae was examined. This test was repeated three times, and the mortality rate of Balanus amphitrite at a given concentration of present agent compound was determined.
A test for mortality rate was conducted in the same manner as in Test 1 except that bis(tributyltin) oxide (hereinafter referred to simply as "TBTO" in some cases) was used as a test compound in place of the present agent compound.
Tests for mortality rate were conducted in the same manner as in Tests 1-10 except that the present agent compounds were changed to those shown in Table 4.
Tests for mortality rate were conducted in the same manner as in Tests 1-10 except that the present agent compounds were changed to those shown in Table 6.

SMILES	Mortality rate
CCC[CH2][Sn]([CH2]CCC)([CH2]CCC)[O][Sn]([CH2]CCC)([CH2]CCC)[CH2]CCC [TBTO, bis(tributyltin) oxide, reference compound]	50%

Same assay, conditions: Amphibalanus amphitrite, 24 h, read-out: Mortality rate

SMILES	mortality at 0.1 ppm
N#CC(=C(O)c1c(F)cccc1Cl)c1nc(-c2ccccc2F)cs1 [Test 7]	100%
Cc1ccccc1-c1csc(C(C#N)=C(O)c2ccccc2Br)n1 [Test 3]	100%
N#CC(=C(O)c1ccccc1Cl)c1nc(-c2ccccc2)cs1 [Test 1]	100%
CC(C)(C)c1csc(C(C#N)=C(O)c2ccccc2Cl)n1 [Test 2]	100%
Cc1ccccc1-c1csc(C(C#N)=C(O)c2ccccc2I)n1 [Test 4]	100%
N#CC(=C(O)c1ccccc1Cl)c1nc(-c2ccccc2F)cs1 [Test 6]	100%
N#CC(=C(O)c1ccccc1Cl)c1nc(-c2ccccc2Cl)cs1 [Test 5]	100%

Same assay, conditions: barnacle, in vivo, 24 h

SMILES	Mortality rate
CC(=O)OC(=C(C#N)c1nc(-c2ccccc2)cs1)c1ccccc1Cl [Test 13]	100%
CCCCS(=O)(=O)OC(=C(C#N)c1nc(-c2ccccc2)cs1)c1ccccc1Cl [Test 19]	100%
N#CC(=C(OC(=O)c1ccccc1)c1ccccc1Cl)c1nc(-c2ccccc2)cs1 [Test 16]	100%
CCCCC(=O)OC(=C(C#N)c1nc(-c2ccccc2)cs1)c1ccccc1Cl [Test 15]	100%
Cc1ccc(S(=O)(=O)OC(=C(C#N)c2nc(-c3ccccc3)cs2)c2ccccc2Cl)cc1 [Test 18]	100%
Cc1ccc(C(=O)OC(=C(C#N)c2nc(-c3ccccc3)cs2)c2ccccc2Cl)cc1 [Test 14]	100%
CS(=O)(=O)OC(=C(C#N)c1nc(-c2ccccc2)cs1)c1ccccc1Cl [Test 17]	100%
N#CC(=C(OS(=O)(=O)c1ccccc1)c1ccccc1Cl)c1nc(-c2ccccc2)cs1 [Test 20]	100%

System: not listed separately
Test: in vivo
Conditions: rat, po

SMILES	LD50
N#CC(C(=O)c1ccccc1Cl)=C1NC(c2ccccc2)=CS1 [3-(2-chlorophenyl)-2-(4-phenyl-2,3-dihydrothiazole-2-ylidene)-3-oxopropionitrile]	≥ 5000 mg/kg

From US5603755A, “Preventive agent for fouling organisms” (Ihara Chemical Industry Co., Ltd., priority 1994, dated 1997)
